Measured values as given in paper PMC8893300, “A Dynamic Mass Redistribution Assay for the Human Sweet Taste Receptor Uncovers G-Protein Dependent Biased Ligands” (Frontiers in Pharmacology, 2022).
Where two headings read alike, the source gives them in different places. Marks after values point to notes of the source that are not given here.

Target: T1, human sweet taste receptor (hT1R2/hT1R3) coupled to Gα15 (Homo sapiens, UniProt Q7RTX0+Q8TE23)
T1 construct: expressed in transfected cells
T1 sequence (Q8TE23 20-839): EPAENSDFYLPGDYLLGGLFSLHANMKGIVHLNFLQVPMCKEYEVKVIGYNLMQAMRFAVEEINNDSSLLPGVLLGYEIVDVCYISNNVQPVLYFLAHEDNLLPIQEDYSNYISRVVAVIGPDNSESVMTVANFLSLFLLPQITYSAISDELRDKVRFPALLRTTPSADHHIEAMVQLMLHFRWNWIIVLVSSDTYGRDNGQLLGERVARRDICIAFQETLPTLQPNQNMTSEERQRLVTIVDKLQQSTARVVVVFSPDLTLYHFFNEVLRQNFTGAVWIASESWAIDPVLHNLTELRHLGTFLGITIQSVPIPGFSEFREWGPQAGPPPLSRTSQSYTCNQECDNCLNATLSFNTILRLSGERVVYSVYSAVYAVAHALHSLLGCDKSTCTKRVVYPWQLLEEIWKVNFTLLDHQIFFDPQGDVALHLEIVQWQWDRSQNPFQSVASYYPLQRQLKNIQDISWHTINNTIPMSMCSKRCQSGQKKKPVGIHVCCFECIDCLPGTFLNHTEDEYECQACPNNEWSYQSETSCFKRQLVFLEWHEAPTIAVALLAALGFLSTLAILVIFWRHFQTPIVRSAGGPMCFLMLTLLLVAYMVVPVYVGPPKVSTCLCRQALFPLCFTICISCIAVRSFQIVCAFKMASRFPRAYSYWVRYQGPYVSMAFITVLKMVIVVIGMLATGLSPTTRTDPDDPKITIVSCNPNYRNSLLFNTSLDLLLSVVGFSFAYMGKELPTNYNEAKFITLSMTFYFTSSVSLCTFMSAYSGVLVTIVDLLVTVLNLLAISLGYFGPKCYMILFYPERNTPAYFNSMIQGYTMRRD
T1 sequence (Q7RTX0 21-852): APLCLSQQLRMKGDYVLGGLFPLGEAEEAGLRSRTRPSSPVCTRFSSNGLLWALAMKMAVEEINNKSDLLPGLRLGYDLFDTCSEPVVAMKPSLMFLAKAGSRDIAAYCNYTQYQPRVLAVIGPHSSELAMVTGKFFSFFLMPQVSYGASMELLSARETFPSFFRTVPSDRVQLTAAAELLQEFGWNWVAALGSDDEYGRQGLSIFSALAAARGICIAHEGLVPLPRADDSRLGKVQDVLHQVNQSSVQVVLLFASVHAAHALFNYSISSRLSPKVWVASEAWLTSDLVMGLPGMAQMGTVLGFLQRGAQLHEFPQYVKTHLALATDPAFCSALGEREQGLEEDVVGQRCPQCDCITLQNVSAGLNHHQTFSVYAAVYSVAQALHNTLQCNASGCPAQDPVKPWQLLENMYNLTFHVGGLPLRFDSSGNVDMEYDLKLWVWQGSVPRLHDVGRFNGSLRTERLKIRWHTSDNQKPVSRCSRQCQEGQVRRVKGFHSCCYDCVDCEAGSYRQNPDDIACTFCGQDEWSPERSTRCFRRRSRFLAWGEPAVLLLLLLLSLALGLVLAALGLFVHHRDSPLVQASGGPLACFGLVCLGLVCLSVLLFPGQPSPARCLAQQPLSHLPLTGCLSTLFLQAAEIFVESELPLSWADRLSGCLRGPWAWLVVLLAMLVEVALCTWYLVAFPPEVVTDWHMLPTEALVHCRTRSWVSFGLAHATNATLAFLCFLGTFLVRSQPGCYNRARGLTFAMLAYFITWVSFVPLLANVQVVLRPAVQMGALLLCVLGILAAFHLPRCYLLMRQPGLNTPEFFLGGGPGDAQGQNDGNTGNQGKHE
Test: FLIPR calcium mobilization assay, R2/R3 U2OS cells transduced with Gα15 baculovirus
Assay type: cell-based
Conditions: for ΔlogR FLIPR Mean: FLIPR-Gα15, operational model, logR minus sucralose logR; for Activity in FLIPR assay Emax: Gα15, top asymptote of dose-response normalized to 1 mM sucralose; for EC50: R2/R3 U2OS cells expressing Gα15; for Bias factor: inverse log of ΔΔlogR, FLIPR-Gα15 vs DMR; for ΔΔlogR Mean: ΔlogR FLIPR-Gα15 minus ΔlogR DMR; for fold difference DMR EC50 vs FLIPR EC50 (more potent in FLIPR): DMR EC50 over FLIPR-Gα15 EC50

[1] = read-out: Activity in FLIPR assay EC50
[2] = read-out: Activity in FLIPR assay pEC50 (converted)

| ΔlogR FLIPR Mean | Activity in FLIPR assay Emax | EC50 [1] [nM] | EC50 [2] [nM] | Bias factor | ΔΔlogR Mean | fold difference DMR EC50 vs FLIPR EC50 (more potent in FLIPR) | SMILES |
| --- | --- | --- | --- | --- | --- | --- | --- |
| 1.65 | 116**** | 1600 | 1530 | 3.2 | 0.50 |  | COC(=O)[C@H](Cc1ccccc1)NC(=O)[C@H](CC(=O)O)NCCC(C)(C)C [Neotame] |
| 2.52 | 177**** | 300 | 335 | 4.8 | 0.68 | about 10 times | CC(C)Oc1ccc(NC(=S)NCc2cccs2)cc1 [S5227] |
| 3.11 | 181**** | 70 | 74.5 | 3.9 | 0.59 | about 10 times | CC(C)Oc1ccc(NC(=S)NCc2ccc[nH]2)cc1 [S819] |
